Measured values published in article PMC10999543, “Identification of kinase modulators as host-directed therapeutics against intracellular methicillin-resistant Staphylococcus aureus” (Frontiers in Cellular and Infection Microbiology, 2024).
Read-outs that look alike come from different tables or passages of the source.

Experiments:
HeLa cells = test: Compound screen by flow cytometry: HeLa cell count as surrogate readout of cell viability (z-scoreHeLa); type: cell-based, human; settings: for z-scoreHeLa mean: mean of 3 replicates; for z-scoreHeLa rep 1 / cell count rep 1: replicate 1; for z-scoreHeLa rep 2 / cell count rep 2: replicate 2; for z-scoreHeLa rep 3 / cell count rep 3: replicate 3
Method in brief: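 HeLa cells were infected with GFP-MRSA (mean MOI 6.8 ± 4.6) for 1 h, and extracellular bacteria were killed with 30 µg/ml gentamicin. Cells were then incubated overnight with kinase inhibitors in 5 µg/ml gentamicin, in triplicate against DMSO controls. Flow-cytometric cell count served as a viability surrogate, expressed as a plate z-score.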

intracellular MRSA = type: cell-based, Staphylococcus aureus; settings: for z-scoreMRSA+ mean: mean of 3 replicates; for z-scoreMRSA+ rep 1 / %GFP+ rep 1: replicate 1; for z-scoreMRSA+ rep 2 / %GFP+ rep 2: replicate 2; for z-scoreMRSA+ rep 3 / %GFP+ rep 3: replicate 3
Method in brief: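 HeLa, MRSA-GFP at MOI ~6.8, 1 h infection; gentamicin 30 µg/ml for 15 min; inhibitor plus gentamicin 5 µg/ml overnight, 37°C/5% CO2; triplicate plates; FACS %GFP+ and cell count; hit = z ≤ -2 MRSA+, z ≥ -3 count.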

[1] = PKIS compound screen, Yes/No call
[2] = PKIS compounds raw data, HeLa cell count
[3] = PKIS compound screen, Yes/No call (effect without cell death)
[4] = PKIS compounds raw data, MRSA-infected HeLa cells
[5] = PKIS compound screen raw data, HeLa cell count
[6] = compound screen, HeLa cell count
[7] = PKIS compound screen raw data, MRSA-infected HeLa cells
[8] = Yes/No: effect without cell death
[9] = compound screen, MRSA-infected HeLa cells
[10] = PKIS compound screen, HeLa cell count
[11] = PKIS compound screen, MRSA-infected HeLa cells

SMILES | cell death (HeLa cells; [1]) | z-scoreHeLa mean (HeLa cells; PKIS compound screen) | z-scoreHeLa rep 1 (HeLa cells; PKIS compound screen) | z-scoreHeLa rep 2 (HeLa cells; PKIS compound screen) | z-scoreHeLa rep 3 (HeLa cells; PKIS compound screen) | cell count rep 1 (HeLa cells; [2]) | cell count rep 2 (HeLa cells; [2]) | cell count rep 3 (HeLa cells; [2]) | effect (intracellular MRSA; [1]) | hit (intracellular MRSA; [3]) | z-scoreMRSA+ mean (intracellular MRSA; PKIS compound screen) | z-scoreMRSA+ rep 1 (intracellular MRSA; PKIS compound screen) | z-scoreMRSA+ rep 2 (intracellular MRSA; PKIS compound screen) | z-scoreMRSA+ rep 3 (intracellular MRSA; PKIS compound screen) | %GFP+ rep 1 (intracellular MRSA; [4]) | %GFP+ rep 2 (intracellular MRSA; [4]) | %GFP+ rep 3 (intracellular MRSA; [4]) | cell count rep 1 (HeLa cells; [5]) | cell count rep 2 (HeLa cells; [5]) | cell count rep 3 (HeLa cells; [5]) | further results
CN(C)S(=O)(=O)c1cc(-c2ccc3nccc(-c4cccc(S(N)(=O)=O)c4)c3c2)cnc1N [GSK1669921A] | No | -1.20 | -1.09 | -1.39 | -1.10 | 4231 | 3906 | 3857 | No | No | -1.31 | -1.39 | -1.10 | -1.42 | 19.9% | 20.3% | 19.6% |  |  |  | 
Cc1ccc(C)c(NC(=O)NCCNc2ccnc(Nc3ccc(F)cc3)n2)c1 [GSK1379878A] |  |  |  |  |  |  |  |  |  |  |  |  |  |  |  |  |  | 23015 | 22114 | 18414 | cell death (HeLa cells; Yes/No call from z-scoreHeLa): No; z-scoreHeLa mean (HeLa cells; [6]): -0.62; z-scoreHeLa rep 1 (HeLa cells; [6]): -1.22; z-scoreHeLa rep 2 (HeLa cells; [6]): -0.54; z-scoreHeLa rep 3 (HeLa cells; [6]): -0.10; %GFP+ rep 1 (intracellular MRSA; [7]): 23.2%; %GFP+ rep 2 (intracellular MRSA; [7]): 23.5%; %GFP+ rep 3 (intracellular MRSA; [7]): 22.5%; effect (intracellular MRSA; Yes/No call from z-scoreMRSA+): No; hit (intracellular MRSA; [8]): No; z-scoreMRSA+ mean (intracellular MRSA; [9]): 0.88; z-scoreMRSA+ rep 1 (intracellular MRSA; [9]): 1.18; z-scoreMRSA+ rep 2 (intracellular MRSA; [9]): 1.12; z-scoreMRSA+ rep 3 (intracellular MRSA; [9]): 0.35
CC(C(=O)NC1CCN(c2ccnc(Nc3ccc(F)cc3)n2)C1)c1ccc(Cl)cc1 (stereo not drawn) [GSK1379713A] |  |  |  |  |  |  |  |  |  |  |  |  |  |  |  |  |  | 6297 | 5528 | 7616 | cell death (HeLa cells; Yes/No call from z-scoreHeLa): No; z-scoreHeLa mean (HeLa cells; [6]): 1.28; z-scoreHeLa rep 1 (HeLa cells; [6]): 1.40; z-scoreHeLa rep 2 (HeLa cells; [6]): 0.94; z-scoreHeLa rep 3 (HeLa cells; [6]): 1.50; %GFP+ rep 1 (intracellular MRSA; [7]): 27.3%; %GFP+ rep 2 (intracellular MRSA; [7]): 23.1%; %GFP+ rep 3 (intracellular MRSA; [7]): 24.4%; effect (intracellular MRSA; Yes/No call from z-scoreMRSA+): No; hit (intracellular MRSA; [8]): No; z-scoreMRSA+ mean (intracellular MRSA; [9]): 0.42; z-scoreMRSA+ rep 1 (intracellular MRSA; [9]): 0.47; z-scoreMRSA+ rep 2 (intracellular MRSA; [9]): 0.12; z-scoreMRSA+ rep 3 (intracellular MRSA; [9]): 0.66
Cc1cc(O)cc(C)c1/C=C/c1cncc(C(N)=O)c1 [GW435821X] |  |  |  |  |  |  |  |  |  | No |  |  |  |  |  |  |  | 9030 | 26110 | 32002 | z-scoreHeLa mean (HeLa cells; [10]): -1.55; z-scoreHeLa rep 1 (HeLa cells; [10]): -1.68; z-scoreHeLa rep 2 (HeLa cells; [10]): -1.62; z-scoreHeLa rep 3 (HeLa cells; [10]): -1.36; cell death (HeLa cells; PKIS compound screen, Yes/No call on z-scoreHeLa): No; %GFP+ rep 1 (intracellular MRSA; [7]): 14.7%; %GFP+ rep 2 (intracellular MRSA; [7]): 15.8%; %GFP+ rep 3 (intracellular MRSA; [7]): 16.5%; z-scoreMRSA+ mean (intracellular MRSA; [11]): -0.94; z-scoreMRSA+ rep 1 (intracellular MRSA; [11]): -1.00; z-scoreMRSA+ rep 2 (intracellular MRSA; [11]): -0.82; z-scoreMRSA+ rep 3 (intracellular MRSA; [11]): -1.00; effect (intracellular MRSA; PKIS compound screen, Yes/No call on z-scoreMRSA+): No
Cc1nnc(-c2ccc(C)c(-c3ccc(C(=O)NCc4ccc(Cl)cc4)cc3)c2)o1 [GW708893X] | No | 0.63 | 0.34 | 1.23 | 0.31 | 5153 | 5899 | 7607 | No | No | 0.76 | 0.91 | 1.61 | -0.23 | 16.0% | 18.3% | 15.1% |  |  |  | 
Cc1n[nH]c2ccc(-c3cc(OC[C@@H](N)Cc4ccccc4)cnc3-c3ccoc3)cc12 [GSK507358A] | No | 1.21 | 1.04 | 1.55 | 1.04 | 7770 | 8336 | 7240 | No | No | -1.58 | -1.88 | -1.31 | -1.55 | 17.4% | 19.2% | 18.9% |  |  |  | 
